Patent publication US7001924B2, “Inhibitors of RNase P proteins as antibacterial compounds” (Message Pharmaceuticals, priority 2001, dated 2006)
“Also recorded” adds a separate entry of the source. Structures can show the parent of a compound that is named as a salt.

Tests used:
[1] = test system: N. gonorrhea RNase P (M1 RNA and C5 protein); test: RNase P inhibition assay (fluorescence polarization, ptRNA Gln cleavage); assay type: biochemical; settings: tested at 0.3, 1, 3 and 10 μM, result in words, numbers only in figures
Source text: The ability of compounds of the invention to inhibit RNase P enzymes can be assessed by standard techniques. For example, the cleavage of ptRNA^Gln by the enzyme N. Gonorrhea RNase P, can be monitored in the presence and absence of a candidate compound as described in the Example 23. The progress of the RNase P-mediated cleavage reaction can be assessed by measuring the fluorescence polarization level of the TAMRA moiety hybridized to the cleaved substrate
Compounds of the invention (see Table 1 and FIG. 3) were assayed for inhibition of RNase P activity. The assay components were the M1 RNA and C5 protein from N. gonorrhea and a model precursor tRNA substrate derived from Synechocystis ptGLN. The compounds were diluted in assay buffer (50 mM Tris-HCl, pH 7.5/100 mM […]/10 mM MgCl2/1 mM DTT/1 mg/ml BSA) from 2 μL of a 1 mM DMSO stock solutions in 384 well polypropylene plates to a concentration of 40 μM. 12.5 μL of each compound dilution was transferred to empty duplicate wells of two 384-well black polystyrene assay plates. One assay plate received 37.5 μL of assay buffer plus 12.5 μL of stop buffer (25 mM EDTA/1.25×SSC Buffer in PA buffer; SSC=150 mM NaCl, 15 mM sodium citrate and PA=50 mM TRIS hydrochloride, 100 mM ammonium chloride, 10 mM magnesium chloride) and was read immediately on a LJL Analyst fluorimeter to serve as a background fluorescence plate. The other plate sequentially received the following reagents diluted in assay buffer, 12.5 μL of 0.4 nM M1 RNA, 12.5 μL of 2 nM C5 protein, and 12.5 μL of 160 nM substrate. Wells were included that receive neither the M1 RNA nor the C5 protein to serve as no-enzyme controls. The enzymatic reaction was allowed to proceed for 30 minutes and was stopped by the addition of 12.5 μL per well of stop buffer containing 20 nM of a DNA-5′ TAMRA probe complementary to the 5′ end of the substrate. The probe was allowed to hybridize to the substrate for 2 hours, and the polarization status of the probe was measured using the LJL Analyst fluorimeter. All compounds were tested at 0.3 μM, 1 μM, 3 μM, and 10 μM concentrations. The results, which are expressed as a percentage of the control, were calculated using equation 1. In this equation, f is the fluorescence in counts per second; (f.enzyme+probe) is the fluorescence observed when enzymatic activity is uninhibited; (f.probe) is the fluorescence observed without enzymatic activity; and (f.compound+enzyme+probe) is the fluorescence observed when the enzymatic activity is modulated by a compound of the invention. Assay results for MES 35793 are shown in FIG. 7, and assay results for MES 31242, MES 82794, and MES 35793 are shown in FIG. 8. Other candidate RNase P inhibitors may be tested similarly using any RNase P holoenzyme and any appropriate RNase P substrate. [formula]

N. gonorrhea = test: Bacterial inhibition assay, N. Gonorrhea growth; assay type: cell-based; settings: tested at 1, 3 and 10 μM, result in words
Method: (§1) Compounds of the invention (see Table 1 and FIG. 3) were assayed for their ability to inhibit bacterial growth. Compounds were diluted from 10 mM DMSO stocks to 3 mM and 1 mM in DMSO. The compounds were further diluted from these stocks into saline for 200, […], and 20 μM stocks. Control antibiotics were diluted similarly. Overnight cultures of bacteria were made in the following manner. N. gonorrhea was streaked onto a chocolate agar plate and incubated at 35° C./5% CO2. A loopful from a stock plate of E. coli was added to 3 mL TSB medium, vortexed and incubated at 37° C. in the absence of CO2. An S. aureus culture was made as described for the E. coli culture, except that a nutrient broth was used instead of TSB medium. […]
(§2) On the following day bacteria were prepared by dilution into saline with O.D. 625 nM readings taken to determine the concentration of the bacteria. CFUs (colony forming units) were determined using the formula: CFU/mL=OD625×(1.5×10^8 CFU/mL/OD McFarland std)×dilution. […] Plates were incubated at 35° C. with O2 for 16-20 hours for S. aureus, S. pyogenes, and E. coli and read at OD665 in the Victor2 plate reader. […] The plates were read at OD490. […] The results, which are expressed as a percentage of the control, were calculated using equation 2. […]

[2] = test system: bacterial growth (N. gonorrhea, E. coli, S. aureus, S. pyogenes); test: Bacterial inhibition assay (species not stated); assay type: cell-based; settings: tested at 1, 3 and 10 μM; species not given, refers to FIGS. 1A-2
Method: The ability of compounds of the invention to inhibit bacterial growth can also be assessed by standard testing procedures, such as monitoring bacterial growth in the presence of one or more candidate compound. Any reduction in bacterial growth, in comparison to an uninhibited control, is a measure of the antibacterial activity of the compound. The antibacterial activity of some compounds of the invention were measured against N. gonorrhea, E. coli, S. aureus, and S. pyogenes (Example 23).
Compounds of the invention (see Table 1 and FIG. 3) were assayed for their ability to inhibit bacterial growth. Compounds were diluted from 10 mM DMSO stocks to 3 mM and 1 mM in DMSO. The compounds were further diluted from these stocks into saline for 200, 120, and 20 μM stocks. Control antibiotics were diluted similarly. Overnight cultures of bacteria were made in the following manner. N. gonorrhea was streaked onto a chocolate agar plate and incubated at 35° C./5% CO2. A loopful from a stock plate of E. coli was added to 3 mL TSB medium, vortexed and incubated at 37° C. in the absence of CO2. An S. aureus culture was made as described for the E. coli culture, except that a nutrient broth was used instead of TSB medium. Rather than make an overnight culture of S. pyogenes, a loopful of S. pyogenes from a blood plate or a stock plate was used the following day for direct cell suspension.
On the following day bacteria were prepared by dilution into saline with O.D. 625 nM readings taken to determine the concentration of the bacteria. CFUs (colony forming units) were determined using the formula: CFU/mL=OD625×(1.5×10^8 CFU/mL/OD McFarland std)×dilution. The four bacterial cultures were diluted initially to 5.5×10^7 CFU/mL. The bacteria were then further diluted into medium to 5.5×10^5 CFU/mL for S. aureus, S. pyogenes and E. coli and 5.5×10^6 CFU/mL for N. gonorrhea. S. aureus and E. coli are grown in CAMHB medium and S. pyogenes and N. gonorrhea in CAMHB-3% LHB medium. The bacteria were added one per plate at 200 μL per well. Compounds were added in 10 μL for final concentrations of 10, 3 and 1 μM in duplicate. Control antibiotics for S. aureus, oxacillin; for S. pyogenes, penicillin; for E. coli, ampicillin; and for N. gonorrhea, ciprofloxacin were added from 0.8 mg/ml to 0.003 mg/ml. Plates were incubated at 35° C. with O2 for 16-20 hours for S. aureus, S. pyogenes, and E. coli and read at OD665 in the Victor2 plate reader. Plates were incubated at 35° C. with 5% CO2 for 24 hours for N. gonorrhea at which time 40 μL of MTS reagent is added per well and incubated for 1 hour in same incubator. The plates were read at OD490. Compounds were tested at 1 μM, 3 μM, and 10 μM concentrations. The results, which are expressed as a percentage of the control, were calculated using equation 2. […]

S. aureus = test: Bacterial inhibition assay, S. aureus growth; assay type: cell-based; settings: tested at 1, 3 and 10 μM, result in words
Method: as §1, §2

Structure (SMILES) | inhibition of RNase P activity (fluorescence data, percentage of the control) [1] | inhibition of bacterial growth, N. Gonorrhea growth data (N. gonorrhea) | inhibitors of bacterial growth (summary statement) [2] | inhibition of RNase P activity (fluorescence data, percentage of the control) ([1]; listed as MES10609) | inhibition of bacterial growth, S. aureus data (S. aureus) | inhibition of RNase P activity (fluorescence data, percentage of the control) ([1]; listed as MES10636)
CCN1/C(=C\C=c2/s/c(=C\c3sc4ccccc4[n+]3CC)n(CC)c2=O)Sc2ccccc21 [MES 35793] | can inhibit RNase P activity; also recorded: can inhibit a representative RNase P | can inhibit bacterial growth | inhibitors of bacterial growth |  |  | 
CCN1/C(=C/c2sc3ccc(O)cc3[n+]2CC)C=Cc2ccc(C)cc21 [MES 82794] | can inhibit a representative RNase P |  |  |  |  | 
C/C(=N\NC(=N)N)c1cccc(C(=O)NCCNC(=O)c2cccc(/C(C)=N/NC(=N)N)c2)c1 [MES 10609, bisguanylhydrazone of N-(N′-2-(3-acetylbenzamido)-ethyl)-3-acetylbenzamide] | can inhibit RNase P activity | can inhibit bacterial growth | inhibitors of bacterial growth | inhibitors of RNase P activity |  | 
C/C(=N\NC(=N)N)c1ccc(NC(=O)CNC(=O)c2cccc(/C(C)=N/NC(=N)N)c2)cc1 [MES 10635, Bisguanylhydrazone trifluoroacetic acid salt of N′-(3-acetylbenzoyl)-N-(4-acetylphenyl)glycinamide] | inhibitors of RNase P activity; also recorded: can inhibit a representative RNase P |  | inhibitors of bacterial growth |  | can inhibit bacterial growth | 
C/C(=N\NC(=N)N)c1ccc(NC(=O)[C@H](Cc2ccccc2)NC(=O)c2cccc(/C(C)=N/NC(=N)N)c2)cc1 [MES 10636, Bisguanylhydrazone trifluoroacetic acid salt of N′-(3-acetylbenzoyl)-N-(4-acetylphenyl)phenylalaninamide] | can inhibit a representative RNase P |  | inhibitors of bacterial growth |  | can inhibit bacterial growth | inhibitors of RNase P activity
CCN1/C(=C/C=C/c2sc3c4ccccc4ccc3[n+]2CC)Sc2cc(C)c(C)cc21 [MES 31242] | can inhibit a representative RNase P |  |  |  |  | 
